Experimental data reported in patent publication US9133437B2, “Cell proliferation-promoting peptide and use thereof” (TOAGOSEI CO. LTD., priority 2009, dated 2015).
Where no end group is shown, it is not given here.

Test system: Rat bone marrow stem cells (mesenchymal stem cells)
Assay: Cell proliferation-promoting activity, WST-8 colorimetry (OD450)
Type: cell-based
Conditions: WST-8, 2 hours; for OD450 day 4: four days from start of incubation; for OD450 day 4 / OD450 day 2: bFGF at 10 ng/mL; for OD450 Start: start of the incubation (day 0), 1×10^3 cells per well; for OD450 day 2: two days from start of incubation
Method: The cell proliferation-promoting peptides (Samples 1 to 8) obtained in Example 1 and the peptides composed of only a (A) part sequence (Samples 9 to 11) which had been prepared for comparison were evaluated, respectively, on the cell proliferation-promoting activity. Sample 12 was an experimental control where a commercial bFGF was used as the cell proliferation promoter. Sample 13 was an experimental control where no peptide was added (bFGF was not added, either). The evaluation assay is described in detail below. Each synthesized peptide sample was dissolved in PBS (phosphate buffered saline) to prepare a stock solution having a peptide concentration of 1 mM.
Rat bone marrow stem cells (mesenchymal stem cells) were used as the test cells. In particular, the test stem cells were subcultured in Dulbecco MEM (DMEM: a Gibco product) containing 10% fetal bovine serum (FBS: a Gibco product), 2 mM of L-glutamine, 50 unit/mL of penicillin, and 50 μg/mL of streptomycin. Passage 2 cells were used for the evaluation.
The test stem cells that had been pre-incubated overnight in the DMEM containing 10 ng/mL of bFGF were collected and seeded at 1×10^3 cells per well in a 96-well plate. The amount of the culture medium was […] per well.
Then, the stock solutions containing respective peptides of Samples 1 to 11 were added to some wells, one for each well. For comparison, a commercial bFGF (a PeproTech product) was added at a concentration of 10 ng/mL to some other wells (Sample 12). Similarly, yet some other wells were set up to not to contain any of the sample peptides or bFGF (Sample 13).
After a sample peptide or bFGF was added as described above, the 96-well plate was placed in a CO2 incubator and incubated standing at 37° C. and 5% CO2. Exchange of the culture medium was carried out every other day. The culture medium used for an exchange was the same as the culture medium used initially for the incubation (i.e., for the group containing a sample peptide or bFGF, the same sample peptide or bFGF was added to the exchanged culture medium).
During the course of this incubation assay, water-soluble tetrazolium salt (WST-8) was added to some wells as a staining reagent at the start of the incubation (day 0), when two days had passed from the start (day 2) and when four days had passed from the start (day 4). Incubated for 2 hours after the addition, the cell culture medium with the added staining reagent was collected. The level of cell proliferation was evaluated by colorimetry as optical density measured at 450 nm (OD450) based on reduction of the tetrazolium salt.

KKRTLRKNDRKKR (KKRTLRKNDRKKR-NH2) [Sample 9, reference compound]
OD450 day 4: 1.260 | OD450 Start: 0.124 | OD450 day 2: 0.648

KKRTLRKNDRKKR LLGNSSPRTQSPQNC (KKRTLRKNDRKKRLLGNSSPRTQSPQNC-NH2) [Sample 3]
OD450 day 4: 2.289 | OD450 Start: 0.124 | OD450 day 2: 1.177

KKRTLRKNDRKKR TLKERCLQVVRSLVK (KKRTLRKNDRKKRTLKERCLQVVRSLVK) [Sample 4]
OD450 day 4: 2.410 | OD450 Start: 0.124 | OD450 day 2: 1.357

Sample 12: experimental control: commercial bFGF (basic fibroblast growth factor, a PeproTech product) at 10 ng/mL
OD450 day 4: 1.977 | OD450 Start: 0.124 | OD450 day 2: 1.022

TLDGGDIINALCFS KKRTLRKNDRKKR (TLDGGDIINALCFSKKRTLRKNDRKKR-NH2) [Sample 2]
OD450 day 4: 2.259 | OD450 Start: 0.124 | OD450 day 2: 1.133

TLKERCLQVVRSLVK KKRTLRKNDRKKR (TLKERCLQVVRSLVKKKRTLRKNDRKKR) [Sample 1]
OD450 day 4: 2.369 | OD450 Start: 0.124 | OD450 day 2: 1.264

WRRQARFK TLKERCLQVVRSLVK (WRRQARFKTLKERCLQVVRSLVK) [Sample 6]
OD450 day 4: 2.365 | OD450 Start: 0.124 | OD450 day 2: 1.181

WRRQARFK [Sample 11, reference compound]
OD450 day 4: 1.744 | OD450 Start: 0.124 | OD450 day 2: 0.799

YARAAARQARA (YARAAARQARA-NH2) [Sample 10, reference compound]
OD450 day 4: 1.737 | OD450 Start: 0.124 | OD450 day 2: 0.770

YARAAARQARA SLQYLCRFVIRQYTR (YARAAARQARASLQYLCRFVIRQYTR-NH2) [Sample 8]
OD450 day 4: 1.828 | OD450 Start: 0.124 | OD450 day 2: 0.856

YARAAARQARA TLKERCLQVVRSLVK (YARAAARQARATLKERCLQVVRSLVK) [Sample 5]
OD450 day 4: 1.971 | OD450 Start: 0.124 | OD450 day 2: 0.926

YGRKKRRQRRRTLKERCLQVVRSLVK (YGRKKRRQRRRTLKERCLQVVRSLVK-NH2) [Sample 7]
OD450 day 4: 2.279 | OD450 Start: 0.124 | OD450 day 2: 1.340
